IC50 and Ratio IC50 data for two compounds are collected here from ChEMBL document CHEMBL5104133, “Sortase A-mediated cyclization of novel polycyclic RGD peptides for ανβ3 integrin targeting” (Bioorg Med Chem Lett, 2022).

Usually IC50 stands for the midpoint of a concentration-inhibition curve. A lower IC50 goes with higher potency.

Experiment [1] addresses T1, Integrin alpha-V/beta-3 (Homo sapiens, UniProt P05106+P06756). Put plainly: Inhibition of alphavbeta3 integrin receptor-mediated cell adhesion to fibrinogen in human HEK293 cells. It is filed as cell-based.
The species entered for another experiment is Homo sapiens. Put plainly: Selectivity ratio of IC50 for alphavbeta5 integrin receptor-mediated cell adhesion to vitronectin in human HT-29 cells to IC50 for alphavbeta3 integrin receptor-mediated cell adhesion to fibrinogen in human HEK293 cells. It is filed as cell-based.
Experiment [2] deals with T1, Integrin alpha-V/beta-3. The experiment in a line: Inhibition of alphavbeta3 integrin receptor-mediated cell adhesion to fibrinogen in human SK-OV-3 cells […] integrin receptor. The experiment is classed as cell-based.
In a further experiment the target is Integrin alpha-5/beta-1 (Homo sapiens, UniProt P05556+P08648). Put plainly: Inhibition of alpha5beta1 integrin receptor expressed on human surface of adipose tissue-derived stem cells. The experiment is classed as cell-based, Adipose tissue derived mesenchymal stem cell.
In experiment [3] the target is Integrin alpha-IIb/beta-3 (Homo sapiens, UniProt P05106+P08514). Put plainly: Inhibition of alpha2bbeta3 integrin receptor expressed on human surface of platelets. The experiment is classed as cell-based, Platelet.
The next experiment has as its target Integrin alpha-V/beta-5 (Homo sapiens, UniProt P06756+P18084). Put plainly: Inhibition of alphavbeta5 integrin receptor-mediated cell adhesion to vitronectin in human HT-29 cells. The experiment is classed as cell-based.

T1 sequence (P05106 27-788 limits assumed): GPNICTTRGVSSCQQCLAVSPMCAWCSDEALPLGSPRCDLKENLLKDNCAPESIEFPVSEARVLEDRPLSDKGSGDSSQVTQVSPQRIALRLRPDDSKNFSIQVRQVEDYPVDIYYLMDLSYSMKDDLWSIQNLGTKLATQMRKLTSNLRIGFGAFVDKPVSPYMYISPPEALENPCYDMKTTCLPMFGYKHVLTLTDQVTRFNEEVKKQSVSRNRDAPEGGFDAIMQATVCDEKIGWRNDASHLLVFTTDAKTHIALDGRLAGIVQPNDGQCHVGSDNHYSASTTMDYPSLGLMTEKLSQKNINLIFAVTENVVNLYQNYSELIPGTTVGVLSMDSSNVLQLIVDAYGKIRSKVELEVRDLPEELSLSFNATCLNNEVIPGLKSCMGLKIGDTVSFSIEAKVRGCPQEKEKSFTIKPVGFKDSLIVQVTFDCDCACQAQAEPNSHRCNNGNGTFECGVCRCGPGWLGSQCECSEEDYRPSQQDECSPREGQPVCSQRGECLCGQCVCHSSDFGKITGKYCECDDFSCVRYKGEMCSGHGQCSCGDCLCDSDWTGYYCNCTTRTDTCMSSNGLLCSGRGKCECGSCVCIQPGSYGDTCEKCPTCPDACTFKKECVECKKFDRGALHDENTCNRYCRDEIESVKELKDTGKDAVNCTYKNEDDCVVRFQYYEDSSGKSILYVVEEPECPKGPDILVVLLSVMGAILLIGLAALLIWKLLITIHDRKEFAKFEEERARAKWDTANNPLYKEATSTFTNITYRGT
T1 sequence (P06756 31-889 limits assumed): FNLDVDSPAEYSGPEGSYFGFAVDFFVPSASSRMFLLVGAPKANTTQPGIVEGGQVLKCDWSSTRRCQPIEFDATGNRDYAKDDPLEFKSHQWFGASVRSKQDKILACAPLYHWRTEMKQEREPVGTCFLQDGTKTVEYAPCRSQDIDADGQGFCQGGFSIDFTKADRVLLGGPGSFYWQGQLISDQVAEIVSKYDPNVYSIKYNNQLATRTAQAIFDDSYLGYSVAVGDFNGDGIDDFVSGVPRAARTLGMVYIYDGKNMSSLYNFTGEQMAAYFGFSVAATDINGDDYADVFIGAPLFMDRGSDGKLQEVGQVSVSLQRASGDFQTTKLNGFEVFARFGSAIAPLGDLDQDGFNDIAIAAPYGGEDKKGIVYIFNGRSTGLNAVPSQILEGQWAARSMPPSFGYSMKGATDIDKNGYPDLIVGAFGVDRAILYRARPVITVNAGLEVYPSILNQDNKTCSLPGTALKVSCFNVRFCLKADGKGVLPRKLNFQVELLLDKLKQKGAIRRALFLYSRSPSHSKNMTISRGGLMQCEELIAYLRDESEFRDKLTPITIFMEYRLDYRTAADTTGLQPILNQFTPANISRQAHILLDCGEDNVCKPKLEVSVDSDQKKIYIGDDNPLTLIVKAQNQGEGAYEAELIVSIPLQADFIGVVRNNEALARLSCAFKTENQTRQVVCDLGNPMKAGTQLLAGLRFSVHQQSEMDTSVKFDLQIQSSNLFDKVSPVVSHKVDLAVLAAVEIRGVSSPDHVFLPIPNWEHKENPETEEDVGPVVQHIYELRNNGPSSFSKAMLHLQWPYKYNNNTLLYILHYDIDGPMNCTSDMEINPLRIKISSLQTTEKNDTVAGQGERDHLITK
T1 sequence (P06756 891-1048 limits assumed): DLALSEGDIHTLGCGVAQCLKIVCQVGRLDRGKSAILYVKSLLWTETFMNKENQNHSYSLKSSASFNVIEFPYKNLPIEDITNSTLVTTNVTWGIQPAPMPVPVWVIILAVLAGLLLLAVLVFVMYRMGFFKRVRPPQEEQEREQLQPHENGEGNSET
Chain of Integrin alpha-IIb/beta-3 (P05106 27-788 limits assumed): as the sequence (P05106 27-788 limits assumed) above
Chain of Integrin alpha-IIb/beta-3 (P08514 32-887 limits assumed): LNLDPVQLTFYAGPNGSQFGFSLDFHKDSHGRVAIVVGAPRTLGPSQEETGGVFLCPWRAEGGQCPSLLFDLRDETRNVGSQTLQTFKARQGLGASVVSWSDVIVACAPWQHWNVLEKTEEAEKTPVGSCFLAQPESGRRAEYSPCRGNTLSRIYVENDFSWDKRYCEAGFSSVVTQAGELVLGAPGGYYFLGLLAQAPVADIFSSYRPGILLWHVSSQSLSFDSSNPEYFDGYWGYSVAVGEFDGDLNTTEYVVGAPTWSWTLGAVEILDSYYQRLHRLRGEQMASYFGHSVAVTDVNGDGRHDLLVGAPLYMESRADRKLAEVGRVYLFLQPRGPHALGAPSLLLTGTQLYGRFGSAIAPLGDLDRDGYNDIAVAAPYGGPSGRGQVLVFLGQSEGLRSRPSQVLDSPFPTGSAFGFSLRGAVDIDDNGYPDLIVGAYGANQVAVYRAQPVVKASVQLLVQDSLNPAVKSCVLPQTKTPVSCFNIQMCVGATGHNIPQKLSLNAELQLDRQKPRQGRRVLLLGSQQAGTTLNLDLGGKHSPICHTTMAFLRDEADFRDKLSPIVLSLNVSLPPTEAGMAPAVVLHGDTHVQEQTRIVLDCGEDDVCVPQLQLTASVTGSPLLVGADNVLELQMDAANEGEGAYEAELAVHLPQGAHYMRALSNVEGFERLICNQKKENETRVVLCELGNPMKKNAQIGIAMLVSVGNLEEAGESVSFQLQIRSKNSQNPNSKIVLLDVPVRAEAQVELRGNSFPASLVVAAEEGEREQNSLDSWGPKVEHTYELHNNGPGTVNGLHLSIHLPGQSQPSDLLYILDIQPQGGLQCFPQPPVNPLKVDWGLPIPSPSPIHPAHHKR
Chain of Integrin alpha-IIb/beta-3 (P08514 891-1039 limits assumed): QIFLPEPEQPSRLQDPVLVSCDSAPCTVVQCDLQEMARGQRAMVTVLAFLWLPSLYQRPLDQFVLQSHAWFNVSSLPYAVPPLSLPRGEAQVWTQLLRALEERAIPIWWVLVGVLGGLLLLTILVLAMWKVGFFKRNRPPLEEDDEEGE
Chain of Integrin alpha-5/beta-1 (P05556 21-798 limits assumed): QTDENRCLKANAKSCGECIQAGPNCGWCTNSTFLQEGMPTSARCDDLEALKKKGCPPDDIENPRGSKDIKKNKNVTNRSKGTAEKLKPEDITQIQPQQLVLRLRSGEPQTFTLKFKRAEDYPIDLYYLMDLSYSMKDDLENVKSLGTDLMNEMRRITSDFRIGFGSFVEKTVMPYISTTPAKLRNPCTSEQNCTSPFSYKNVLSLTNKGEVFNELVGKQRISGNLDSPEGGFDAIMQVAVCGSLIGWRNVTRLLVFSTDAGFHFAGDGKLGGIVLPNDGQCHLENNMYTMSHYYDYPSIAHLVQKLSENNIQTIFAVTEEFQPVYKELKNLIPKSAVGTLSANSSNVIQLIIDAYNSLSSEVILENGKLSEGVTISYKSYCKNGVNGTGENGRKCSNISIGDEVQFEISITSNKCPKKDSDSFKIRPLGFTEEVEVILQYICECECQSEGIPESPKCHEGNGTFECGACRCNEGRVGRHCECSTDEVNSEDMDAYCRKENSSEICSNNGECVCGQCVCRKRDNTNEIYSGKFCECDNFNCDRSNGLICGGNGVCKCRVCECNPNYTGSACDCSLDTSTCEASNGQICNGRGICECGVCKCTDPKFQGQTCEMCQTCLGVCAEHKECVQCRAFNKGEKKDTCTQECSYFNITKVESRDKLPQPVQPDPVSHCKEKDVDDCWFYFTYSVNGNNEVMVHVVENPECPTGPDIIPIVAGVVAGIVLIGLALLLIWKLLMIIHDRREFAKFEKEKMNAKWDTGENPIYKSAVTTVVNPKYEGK
Chain of Integrin alpha-5/beta-1 (P08648 42-894 limits assumed): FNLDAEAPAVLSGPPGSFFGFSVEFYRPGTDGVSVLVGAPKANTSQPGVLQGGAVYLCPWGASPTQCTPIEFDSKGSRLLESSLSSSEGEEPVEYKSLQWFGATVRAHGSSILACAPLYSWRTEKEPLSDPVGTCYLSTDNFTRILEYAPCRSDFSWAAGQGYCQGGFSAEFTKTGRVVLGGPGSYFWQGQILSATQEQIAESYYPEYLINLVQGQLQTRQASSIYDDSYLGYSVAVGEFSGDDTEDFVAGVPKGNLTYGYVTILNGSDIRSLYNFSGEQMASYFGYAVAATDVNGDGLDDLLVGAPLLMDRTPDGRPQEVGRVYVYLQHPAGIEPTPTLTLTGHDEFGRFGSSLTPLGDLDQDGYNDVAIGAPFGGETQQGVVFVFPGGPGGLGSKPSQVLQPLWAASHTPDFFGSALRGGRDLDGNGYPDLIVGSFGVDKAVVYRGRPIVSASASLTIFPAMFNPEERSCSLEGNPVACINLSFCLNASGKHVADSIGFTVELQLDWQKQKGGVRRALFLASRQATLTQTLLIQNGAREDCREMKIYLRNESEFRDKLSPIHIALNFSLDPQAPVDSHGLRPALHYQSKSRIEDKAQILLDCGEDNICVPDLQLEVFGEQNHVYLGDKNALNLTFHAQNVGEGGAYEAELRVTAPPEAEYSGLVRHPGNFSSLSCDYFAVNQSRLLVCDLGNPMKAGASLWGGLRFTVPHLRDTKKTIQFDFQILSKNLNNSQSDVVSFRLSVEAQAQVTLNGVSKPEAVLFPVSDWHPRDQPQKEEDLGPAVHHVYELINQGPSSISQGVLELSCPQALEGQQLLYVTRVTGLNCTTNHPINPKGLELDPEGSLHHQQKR
Chain of Integrin alpha-5/beta-1 (P08648 895-1049 limits assumed): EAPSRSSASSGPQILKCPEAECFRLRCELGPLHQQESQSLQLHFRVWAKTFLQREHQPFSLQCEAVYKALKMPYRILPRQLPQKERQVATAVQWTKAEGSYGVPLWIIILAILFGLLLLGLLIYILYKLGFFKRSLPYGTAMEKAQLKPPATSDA

With `CC(C)C[C@@H]1NC(=O)[C@@H]2CSSC[C@@H]3NC(=O)[C@H](CSSC[C@H](NC(=O)[C@H](C(C)C)NC(=O)[C@@H](Cc4ccccc4)NC(=O)[C@H](CC(=O)O)NC(=O)CNC(=O)[C@H](CCCNC(=N)N)NC3=O)C(=O)N[C@@H](CCCNC(=N)N)C(=O)NCC(=O)N[C@@H](CC(=O)O)C(=O)N[C@H](Cc3ccccc3)C(=O)N[C@@H](C(C)C)C(=O)N2)NC(=O)CNC(=O)CNC(=O)[C@H]([C@@H](C)O)NC(=O)[C@H](CCCCN)NC(=O)[C@@H]2CCCN2C1=O`, the IC50 at Integrin alpha-V/beta-3 [1] is 8.43 µM; on Integrin alpha-V/beta-3 [2] it was 34 µM; on Integrin alpha-5/beta-1 it was 0.154 µM; in experiment [3], greater than 1 µM; against Integrin alpha-V/beta-5 it was 208 µM. The Ratio IC50 in the experiment filed under Homo sapiens was found to be 0.041.
In the case of `CC(C)C[C@@H]1NC(=O)[C@@H]2CSCc3cc4cc(c3)CSC[C@H](NC(=O)[C@H](C(C)C)NC(=O)[C@@H](Cc3ccccc3)NC(=O)[C@H](CC(=O)O)NC(=O)CNC(=O)[C@H](CCCNC(=N)N)NC(=O)[C@H](CSC4)NC(=O)CNC(=O)CNC(=O)CNC(=O)[C@H]([C@H](C)O)NC(=O)[C@H](CCCCN)NC(=O)[C@@H]3CCCN3C1=O)C(=O)N[C@@H](CCCNC(=N)N)C(=O)NCC(=O)N[C@H](CC(=O)O)C(=O)N[C@H](Cc1ccccc1)C(=O)N[C@H](C(C)C)C(=O)N2`, the IC50 on Integrin alpha-V/beta-3 [1] was 0.2 µM; at Integrin alpha-V/beta-3 [2], 25.1 µM; against Integrin alpha-5/beta-1, 0.154 µM; in experiment [3], greater than 1 µM; at Integrin alpha-V/beta-5, 30.2 µM. For the same compound, the Ratio IC50 in the experiment listed under Homo sapiens was 0.006.
